13 molecules from PubChem BioAssay (NCI) can be followed below.

The structures appear in SMILES notation.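 A five-concentration, 48-hour dose response in 96-well plates underlies each endpoint, interpolated linearly between surrounding concentrations. GI50 is the concentration that inhibits growth by half. TGI is the concentration that stops growth completely.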 Where a SMILES comes first, the peptide text is derived from it. [ ]: non-standard residue; d: D form. The star is where a group is joined. ξ: configuration not given here. X6 = FC(F)(F)c1cc(NC(=S)*)cc(C(F)(F)F)c1; ξF = NC(Cc1ccccc1)C(=O)O A value given as a limit tells only on which side of the number the result lay.

One experiment has as its system HCT-15 colon. Nature of the experiment: NCI anticancer screen, dose series, 48 h.
As to `O=C1C2C(C(=O)N1OS(=O)(=O)c1ccccc1)N(Cc1ccccc1)C(=O)N2Cc1ccccc1` (stereo not given), the TGI is more than 100 µM.

`O=C(COc1ccc(Br)cc1Br)N1N=C(c2ccc([N+](=O)[O-])o2)CC1(O)c1ccccc1` (stereo not given) came in with a TGI of 18.7 µM.

For `COc1cc(-c2nn(-c3ccc(NC(=O)c4ccc(Cl)c(C(F)(F)F)c4)cc3)cc2-c2ccncc2)ccc1Cl`, the GI50 is 1.42 µM and the TGI turned out to be 4.21 µM.

In the case of `O=C(Nc1ccccc1OC(F)(F)F)Nc1n[nH]c2ccccc12`, the GI50 is 36.2 µM and the TGI was more than 100 µM.

Consider `O=C(/C=C/C12c3ccccc3C(c3ccccc31)C1C(=O)NC(=O)C12)c1ccncc1` (stereo not given), for which the GI50 was 1.46 µM and the TGI came to 3.94 µM.

Molecule `O=C1C(=O)N(c2ccc(Cl)cc2Cl)C(=O)C(=O)C1c1nc2ccccc2s1` showed a TGI of more than 100 µM.

The molecule `O=CN/C=C/c1cc(O)ccc1O` registered a TGI of 28.2 µM.

`COC(=O)[C@@H](NC(=O)CNC(=O)[C@H]1CCCN1C(=O)C(Cc1ccccc1)NC(=S)Nc1cc(C(F)(F)F)cc(C(F)(F)F)c1)C(C)C` (stereo not given in full) (X6-[ξF][dP]GV-OMe): the GI50 is 2.29 µM and the TGI was 5.37 µM.

Take `Cn1cc(C2=C(c3cn(C)c4ncccc34)C(=O)NC2=O)c2ccccc21`: the GI50 was 7.34 µM and the TGI was more than 25 µM.

Regarding `Clc1cc2nsnc2c(Cl)n1`, the TGI is 45.6 µM.

As for `O=C1/C(=C/c2cccc([N+](=O)[O-])c2)COc2ccc(O)cc21`, the GI50 was 1.7 µM and the TGI was found to be 3.49 µM.

As for `Clc1ccc2c(NCCCCNc3nc(N4CCCCC4)nc4ccccc34)ccnc2c1`, the GI50 was 1.15 µM and the TGI worked out at 3.13 µM.

As to `Cc1nc2ccccc2c(=O)n1-c1ccccc1I`, the TGI is more than 100 µM.

Another experiment relates to HL-60(TB) leukemia. Put plainly: NCI anticancer screen, dose series, 48 h.
With `O=C1C2C(C(=O)N1OS(=O)(=O)c1ccccc1)N(Cc1ccccc1)C(=O)N2Cc1ccccc1` (stereo not given), the TGI was more than 100 µM.

`O=C(COc1ccc(Br)cc1Br)N1N=C(c2ccc([N+](=O)[O-])o2)CC1(O)c1ccccc1` (stereo not given) showed a TGI of 17.1 µM.

As for `COc1cc(-c2nn(-c3ccc(NC(=O)c4ccc(Cl)c(C(F)(F)F)c4)cc3)cc2-c2ccncc2)ccc1Cl`, the GI50 was 3.62 µM and the TGI was more than 57.3 µM.

As for `O=C(Nc1ccccc1OC(F)(F)F)Nc1n[nH]c2ccccc12`, the GI50 is 17.9 µM and the TGI is more than 100 µM.

Turning to `O=C(/C=C/C12c3ccccc3C(c3ccccc31)C1C(=O)NC(=O)C12)c1ccncc1` (stereo not given), the GI50 is 1.76 µM and the TGI was 6.1 µM.

As to `O=C1C(=O)N(c2ccc(Cl)cc2Cl)C(=O)C(=O)C1c1nc2ccccc2s1`, the TGI was determined as 67.1 µM.

Consider `O=CN/C=C/c1cc(O)ccc1O`, for which the TGI was 13.2 µM.

Regarding `COC(=O)[C@@H](NC(=O)CNC(=O)[C@H]1CCCN1C(=O)C(Cc1ccccc1)NC(=S)Nc1cc(C(F)(F)F)cc(C(F)(F)F)c1)C(C)C` (stereo not given in full) (X6-[ξF][dP]GV-OMe), the GI50 is 3.58 µM and the TGI amounted to 12.7 µM.

Take `Cn1cc(C2=C(c3cn(C)c4ncccc34)C(=O)NC2=O)c2ccccc21`: the GI50 was 7.85 µM and the TGI amounted to 20.1 µM.

As to `Clc1cc2nsnc2c(Cl)n1`, the TGI was 36.2 µM.

Turning to `O=C1/C(=C/c2cccc([N+](=O)[O-])c2)COc2ccc(O)cc21`, the GI50 was 1.69 µM and the TGI turned out to be 4.03 µM.

For the molecule `Clc1ccc2c(NCCCCNc3nc(N4CCCCC4)nc4ccccc34)ccnc2c1`, the GI50 was 1.76 µM and the TGI came out at 3.52 µM.

Molecule `Cc1nc2ccccc2c(=O)n1-c1ccccc1I` had a TGI of more than 100 µM.

The next experiment deals with HT29 colon. Nature of the experiment: NCI anticancer screen, dose series, 48 h.
With `O=C1C2C(C(=O)N1OS(=O)(=O)c1ccccc1)N(Cc1ccccc1)C(=O)N2Cc1ccccc1` (stereo not given), the TGI was more than 100 µM.

On to `O=C(COc1ccc(Br)cc1Br)N1N=C(c2ccc([N+](=O)[O-])o2)CC1(O)c1ccccc1` (stereo not given), for which the TGI was 48 µM.

For `COc1cc(-c2nn(-c3ccc(NC(=O)c4ccc(Cl)c(C(F)(F)F)c4)cc3)cc2-c2ccncc2)ccc1Cl`, the GI50 was 1.8 µM and the TGI is 4.25 µM.

With `O=C(Nc1ccccc1OC(F)(F)F)Nc1n[nH]c2ccccc12`, the GI50 is 26.1 µM and the TGI is more than 100 µM.

For the molecule `O=C(/C=C/C12c3ccccc3C(c3ccccc31)C1C(=O)NC(=O)C12)c1ccncc1` (stereo not given), the GI50 was 1.96 µM and the TGI turned out to be 4.35 µM.

In turn, `O=C1C(=O)N(c2ccc(Cl)cc2Cl)C(=O)C(=O)C1c1nc2ccccc2s1` gave a TGI of more than 100 µM.

Molecule `O=CN/C=C/c1cc(O)ccc1O` displayed a TGI of 56.5 µM.

Take `COC(=O)[C@@H](NC(=O)CNC(=O)[C@H]1CCCN1C(=O)C(Cc1ccccc1)NC(=S)Nc1cc(C(F)(F)F)cc(C(F)(F)F)c1)C(C)C` (stereo not given in full) (X6-[ξF][dP]GV-OMe): the GI50 was 2.44 µM and the TGI is 5.75 µM.

Turning to `Cn1cc(C2=C(c3cn(C)c4ncccc34)C(=O)NC2=O)c2ccccc21`, the GI50 was 6.47 µM and the TGI is more than 24.1 µM.

Turning to `Clc1cc2nsnc2c(Cl)n1`, the TGI stood at 49.3 µM.

Turning to `O=C1/C(=C/c2cccc([N+](=O)[O-])c2)COc2ccc(O)cc21`, the GI50 is 1.92 µM and the TGI is 4.58 µM.

As for `Clc1ccc2c(NCCCCNc3nc(N4CCCCC4)nc4ccccc34)ccnc2c1`, the GI50 was 1.63 µM and the TGI stood at 4.86 µM.

In turn, `Cc1nc2ccccc2c(=O)n1-c1ccccc1I` gave a TGI of more than 100 µM.

The test system of another experiment is K-562 leukemia. Put plainly: NCI anticancer screen, dose series, 48 h.
In the case of `O=C1C2C(C(=O)N1OS(=O)(=O)c1ccccc1)N(Cc1ccccc1)C(=O)N2Cc1ccccc1` (stereo not given), the TGI is more than 100 µM.

`O=C(COc1ccc(Br)cc1Br)N1N=C(c2ccc([N+](=O)[O-])o2)CC1(O)c1ccccc1` (stereo not given) registered a TGI of more than 100 µM.

For the molecule `COc1cc(-c2nn(-c3ccc(NC(=O)c4ccc(Cl)c(C(F)(F)F)c4)cc3)cc2-c2ccncc2)ccc1Cl`, the GI50 was 1.81 µM and the TGI came out at 5.67 µM.

Turning to `O=C(Nc1ccccc1OC(F)(F)F)Nc1n[nH]c2ccccc12`, the GI50 was 47.2 µM and the TGI was more than 100 µM.

As for `O=C(/C=C/C12c3ccccc3C(c3ccccc31)C1C(=O)NC(=O)C12)c1ccncc1` (stereo not given), the GI50 was 1.88 µM and the TGI is more than 100 µM.

Molecule `O=C1C(=O)N(c2ccc(Cl)cc2Cl)C(=O)C(=O)C1c1nc2ccccc2s1` displayed a TGI of more than 100 µM.

Take `O=CN/C=C/c1cc(O)ccc1O`: the TGI came out at 52.9 µM.

As for `COC(=O)[C@@H](NC(=O)CNC(=O)[C@H]1CCCN1C(=O)C(Cc1ccccc1)NC(=S)Nc1cc(C(F)(F)F)cc(C(F)(F)F)c1)C(C)C` (stereo not given in full) (X6-[ξF][dP]GV-OMe), the GI50 is 3.27 µM and the TGI was determined as 30.1 µM.

As to `Cn1cc(C2=C(c3cn(C)c4ncccc34)C(=O)NC2=O)c2ccccc21`, the GI50 was 6.99 µM and the TGI is more than 25 µM.

Take `Clc1cc2nsnc2c(Cl)n1`: the TGI was determined as 51.9 µM.

As for `O=C1/C(=C/c2cccc([N+](=O)[O-])c2)COc2ccc(O)cc21`, the GI50 was 0.506 µM and the TGI was 11.8 µM.

In the case of `Clc1ccc2c(NCCCCNc3nc(N4CCCCC4)nc4ccccc34)ccnc2c1`, the GI50 was 1.34 µM and the TGI amounted to 4.1 µM.

Consider `Cc1nc2ccccc2c(=O)n1-c1ccccc1I`, for which the TGI was more than 100 µM.

The subject of another experiment is MALME-3M melanoma. Nature of the experiment: NCI anticancer screen, dose series, 48 h.
`O=C1C2C(C(=O)N1OS(=O)(=O)c1ccccc1)N(Cc1ccccc1)C(=O)N2Cc1ccccc1` (stereo not given) returned a TGI of more than 100 µM.

In turn, `O=C(COc1ccc(Br)cc1Br)N1N=C(c2ccc([N+](=O)[O-])o2)CC1(O)c1ccccc1` (stereo not given) gave a TGI of 25.1 µM.

Regarding `COc1cc(-c2nn(-c3ccc(NC(=O)c4ccc(Cl)c(C(F)(F)F)c4)cc3)cc2-c2ccncc2)ccc1Cl`, the GI50 was 1.46 µM and the TGI is 5.05 µM.

In the case of `O=C(Nc1ccccc1OC(F)(F)F)Nc1n[nH]c2ccccc12`, the GI50 was 76.8 µM and the TGI is more than 100 µM.

With `O=C(/C=C/C12c3ccccc3C(c3ccccc31)C1C(=O)NC(=O)C12)c1ccncc1` (stereo not given), the GI50 is 3.16 µM and the TGI amounted to 12.2 µM.

Take `O=C1C(=O)N(c2ccc(Cl)cc2Cl)C(=O)C(=O)C1c1nc2ccccc2s1`: the TGI was more than 100 µM.

`O=CN/C=C/c1cc(O)ccc1O` yielded a TGI of 35.6 µM.

Consider `COC(=O)[C@@H](NC(=O)CNC(=O)[C@H]1CCCN1C(=O)C(Cc1ccccc1)NC(=S)Nc1cc(C(F)(F)F)cc(C(F)(F)F)c1)C(C)C` (stereo not given in full) (X6-[ξF][dP]GV-OMe), for which the GI50 was 3.88 µM and the TGI is 15.1 µM.

Regarding `Cn1cc(C2=C(c3cn(C)c4ncccc34)C(=O)NC2=O)c2ccccc21`, the GI50 was 8.5 µM and the TGI is 20 µM.

In the case of `Clc1cc2nsnc2c(Cl)n1`, the TGI turned out to be 31.3 µM.

Consider `O=C1/C(=C/c2cccc([N+](=O)[O-])c2)COc2ccc(O)cc21`, for which the GI50 was 2.37 µM and the TGI was 6.75 µM.

Consider `Clc1ccc2c(NCCCCNc3nc(N4CCCCC4)nc4ccccc34)ccnc2c1`, for which the GI50 is 1.85 µM and the TGI was 3.48 µM.

`Cc1nc2ccccc2c(=O)n1-c1ccccc1I` gave a TGI of more than 100 µM.
